The text below walks through data of patent publication US20090105316A1, “Biphenyl Thiazole Carboxamides” (Bayer CropScience AG, priority 2004, published 2009).

As a reminder, the chromatographic logP is lipophilicity estimated from chromatographic retention. Low readings indicate a more hydrophilic compound, high ones a more lipophilic compound.

The nature of the series: Log P determination by HPLC on a reversed-phase column (EEC Directive 79/831, Annex V.A8). It is filed as physicochemical. The conditions noted are these: reversed-phase HPLC column (C 18); pH 2.3. As to the method: The determination of the Log P values occurred according to EEC Directive 79/831, Annex V.A8 using HPLC (High Performance Liquid Chromatography) on a reversed-phase column (C 18). Temperature: 43° C. Eluents for determination in the acidic range (pH 2.3): 0.1% aqueous phosphoric acid, acetonitrile; linear gradient of 10% acetonitrile to 90% acetonitrile. Calibration took place using unbranched alkane-2-ones (with 3 to 16 carbon atoms) with known Log P values (the Log P values were determined on the basis of the retention times by way of linear interpolation between two consecutive alkanones).

With `Cc1ccc(-c2cc(C(F)(F)F)ccc2N)cc1` [4′-methyl-5-(trifluoromethyl)biphenyl-2-amine], the chromatographic logP was determined as 3.98. In the case of `Cc1ccc(-c2cc(C(F)(F)F)ccc2NC(=O)c2sc(C)nc2C(F)(F)F)cc1` [Compound 1.15, 2-methyl-N-[4′-methyl-5-(trifluoromethyl)biphenyl-2-yl]-4-(trifluoromethyl)-1,3-thiazole-5-carboxamide] it was 4.48.
